Where “and” joins values, the source holds several entries; their conditions need not be identical. Equal values may be shown once.
Columns and labels:
E. coli ATCC 11229 = experiment: Determination of Minimum Biocidal Concentration (MBC), XTT reduction inhibition (Example 21); type: cell-based; settings: for replicate OD (450 nm): replicates 1-8
Source text: The method described by J. Gabrielson, et al. (J. Microbiol. Methods 50: 63-73 (2002)) was employed for determination of the Minimum Biocidal Concentration (MBC) of peracids, or for determination of the MBC of hydrogen peroxide and enzyme substrates. The assay method is based on XTT reduction inhibition, where XTT ((2,3-bis[2-methoxy-4-nitro-5-sulfophenyl]-5-[(phenylamino)carbonyl]-2H-tetrazolium, inner salt, monosodium salt) is a redox dye that indicates microbial respiratory activity by a change in optical density (OD) measured at 490 nm or 450 nm. However, there are a variety of other methods available for testing the activity of disinfectants and antiseptics including, but not limited to viable plate counts, direct microscopic counts, dry weight, turbidity measurements, absorbance, and bioluminescence (see, for example Brock, Semour S., Disinfection, Sterilization, and Preservation, 5th edition, Lippincott Williams & Wilkins, Philadelphia, Pa., USA; 2001).
The filtered enzyme-generated product mixture was diluted 1:5 with sterile water, and the resulting solution was further diluted with sterile water in four 1:1 serial dilutions to obtain the concentrations of PAA and hydrogen peroxide listed in Table 22.
The 1:5 dilution and four serial dilutions were evaluated for biocidal activity by mixing 0.100 mL of the PAA-containing solution with 0.100 mL of an inoculum containing 2.7×10^6 CFU/mL of E. coli ATCC 11229 (American Type Culture Collection, Manassas, Va.) in Millers LB broth diluted with Butterfield Buffer; eight replicates of each mixture were contained in individual wells of a sterile 96-well microtiter plate. After the resulting cell suspensions were allowed to stand for 10 minutes at room temperature, they were tested for viability using the growth indicator XTT (2,3-bis[2-methoxy-4-nitro-5-sulfophenyl]-5-[(phenylamino)carbonyl]-2H-tetrazolium, inner salt, monosodium salt; CAS RN 111072-31-2) according to the method of Gabrielson et al. (J. Microbiol. Methods, 50:63-73 (2002)).
Separately, the cell inoculum was treated with sterile solutions of triacetin (Table 24) or hydrogen peroxide in 50 mM phosphate buffer (pH 6.5) (Table 25) at the concentrations present in each of the biocide dilutions in Table 23 to determine the MBC for these components of the biocide solution.

[1] = Protease-catalyzed perhydrolysis of acetamide at pH 4.0 (Example 6); type: biochemical; settings: pH 4.0, 500 mM H2O2, 1 mg protease
Description: (§1) Into a 4-mL glass vial with stir bar was added 1 mg protease (Table 6) in 0.050 mL of 50 mM sodium acetate/acetic acid buffer (pH 4.0), 0.900 mL of an aqueous mixture containing either a) acetamide (278 mM) in 50 mM sodium acetate/acetic acid buffer (pH 4.0) or b) diacetamide (278 mM) in 50 mM sodium acetate/acetic acid buffer (pH 4.0), and 0.052 mL 30% hydrogen peroxide (500 mM final concentration). […] A portion of the filtered reaction samples was diluted 1:10 with dd water and analyzed for hydrogen peroxide, and the remaining portion of the sample was directly analyzed for peracid using the HPLC assay method (Table 7).

[2] = Protease-catalyzed perhydrolysis of diacetamide at pH 4.0 (Example 6); type: biochemical; settings: pH 4.0, 500 mM H2O2, 1 mg protease
Description: as §1

[3] = Protease-catalyzed perhydrolysis of triacetin at pH 4.0 (Example 7); type: biochemical; settings: pH 4.0, 500 mM H2O2, 1 mg protease
Description: as §1, with “triacetin” for “either a) acetamide (278 mM) in 50 mM sodium acetate/acetic acid buffer (pH 4.0) or b) diacetamide”, “8).” for “7).”

[4] = Protease-catalyzed perhydrolysis of triacetin at pH 6.5 (Example 8); type: biochemical; settings: pH 6.5, 500 mM H2O2, 1 mg protease
Description: The analytical procedure described by U. Karst et al. (Anal. Chem., 69 (17):3623-3627 (1997)) was employed, as described herein, for analysis of product mixtures containing peracid and hydrogen peroxide. Briefly, the concentration of peracetic acid (PAA) in analyzed samples ranged from 0.025 mM-10 mM, and the concentration of H2O2 ranged from 0.075 mM-3 mM. Reaction mixtures containing peracid and/or hydrogen peroxide were, if necessary prior to analysis, diluted to produce a concentration of peracid or peroxide in these ranges. Into a 4-mL vial was placed 0.100 mL of 20 mM methyl p-tolyl sulfide (MTS) in acetonitrile, 0.300 mL of distilled and deionized water (dd) and 0.100 mL of sample solution (undiluted or diluted with dd water by a factor of up to 1:25 for analysis of peracid), or 0.100 mL of 20 mM MTS in acetonitrile and 0.390 mL of dd water were added to 0.010 mL of a 1:10 dilution of sample solution (for analysis of hydrogen peroxide). After a reaction time of 10 minutes (in the dark, with no stirring), 0.400 mL CH3CN and 0.100 mL of 40-mM triphenylphosphine (TPP) in CH3CN were added to start the second derivatization reaction for detection of peroxide. The solution was left standing in the dark for 30 min to complete the assay reaction. At the end of 30 minutes, 0.100 mL of 10 mM N,N-diethyl-m-toluamide (DEET, HPLC external standard) was added and the resulting solution analyzed by HPLC: Supelco Discovery C8 10-cm column with pre-column, 10-μL injection, UV detection at 225 nm, solvent A: acetonitrile, solvent B: deionized water, 1 mL/min gradient as follows: […]
Into a 4-mL glass vial with stir bar was added 1 mg protease (Table 6) in 0.050 mL of 50 mM sodium phosphate buffer (pH 6.5), 0.900 mL of an aqueous mixture containing triacetin (278 mM) in 50 mM phosphate buffer (pH 6.5), and 0.052 mL 30% hydrogen peroxide (500 mM final concentration). After stirring for 5 or 30 minutes at 22° C., a 0.250 mL sample was filtered using a 30,000 NMWL filter (Millipore UltraFree-MC) centrifuged for 2 minute at 12,000 RPM. A portion of the filtered reaction samples was diluted 1:10 with dd water and analyzed for hydrogen peroxide, and the remaining portion of the sample was directly analyzed for peracid using the HPLC assay method (Table 9).

[5] = Protease-catalyzed perhydrolysis of acetamide at pH 6.5 (Example 9); type: biochemical; settings: pH 6.5, 500 mM H2O2, 1 mg protease
Description: as §1, with “potassium phosphate” for “sodium acetate/acetic acid”, “6.5),” for “4.0),”, “6.5)” for “4.0)”, “10).” for “7).”

[6] = Protease-catalyzed perhydrolysis of diacetamide at pH 6.5 (Example 9); type: biochemical; settings: pH 6.5, 500 mM H2O2, 1 mg protease
Description: as §1, with “potassium phosphate” for “sodium acetate/acetic acid”, “6.5),” for “4.0),”, “6.5)” for “4.0)”, “10).” for “7).”

## CC(=O)OCC(COC(C)=O)OC(C)=O [triacetin]
E. coli ATCC 11229; highest concentration examined (5455 ppm)
  biocidal effect: no biocidal effect
E. coli ATCC 11229; triacetin 341 ppm
  blank-corrected mean OD: 2.156
  mean replicate OD (450 nm): 2.571
  replicate OD (450 nm): 2.568 and 2.563 and 2.601 and 2.58 and 3.148 and 2.408 and 2.507 and 2.189
E. coli ATCC 11229; triacetin 682 ppm
  blank-corrected mean OD: 1.956
  mean replicate OD (450 nm): 2.371
  replicate OD (450 nm): 2.304 and 2.310 and 2.560 and 2.601 and 2.605 and 2.213 and 2.156 and 2.218
E. coli ATCC 11229; triacetin 1364 ppm
  blank-corrected mean OD: 1.978
  mean replicate OD (450 nm): 2.393
  replicate OD (450 nm): 2.140 and 2.266 and 2.485 and 2.632 and 2.823 and 2.337 and 2.265 and 2.198
E. coli ATCC 11229; triacetin 2728 ppm
  blank-corrected mean OD: 1.913
  mean replicate OD (450 nm): 2.328
  replicate OD (450 nm): 2.273 and 2.167 and 2.358 and 2.454 and 2.663 and 2.280 and 2.208 and 2.222
E. coli ATCC 11229; triacetin 5455 ppm
  blank-corrected mean OD: 1.835
  mean replicate OD (450 nm): 2.250
  replicate OD (450 nm): 2.229 and 2.124 and 2.263 and 2.407 and 2.539 and 2.210 and 2.136 and 2.091

## Bromelain
[1]; 5 min
  acetamide (250 mM) peracetic acid (ppm), 5 min: 57 ppm
[1]; 30 min
  acetamide (250 mM) peracetic acid (ppm), 30 min: 63 ppm
[2]; 5 min
  diacetamide (250 mM) peracetic acid (ppm), 5 min: 92 ppm
[2]; 30 min
  diacetamide (250 mM) peracetic acid (ppm), 30 min: 130 ppm
[3]; 5 min
  triacetin (250 mM) peracetic acid (ppm), 5 min: 83 ppm
[3]; 30 min
  triacetin (250 mM) peracetic acid (ppm), 30 min: 59 ppm
[4]; 5 min
  triacetin (250 mM) peracetic acid (ppm), 5 min: 161 ppm
[4]; 30 min
  triacetin (250 mM) peracetic acid (ppm), 30 min: 170 ppm
[5]; 5 min
  acetamide (250 mM) peracetic acid (ppm), 5 min: 108 ppm
[5]; 30 min
  acetamide (250 mM) peracetic acid (ppm), 30 min: 112 ppm
[6]; 5 min
  diacetamide (250 mM) peracetic acid (ppm), 5 min: 311 ppm
[6]; 30 min
  diacetamide (250 mM) peracetic acid (ppm), 30 min: 202 ppm

From patent US8063008B2, “Enzymatic production of peracids using perhydrolytic enzymes” (E. I. du Pont de Nemours and Company, priority 2005, dated 2011)
